First: CC1N(C(=O)c2ccc(OCC(F)(F)C(F)F)cc2)CC(=O)OC1(Cn1cncn1)c1ccc(Cl)cc1Cl (stereo unspecified)
Second: CC1(C)COC1(Cn1cncn1)c1ccc(F)cc1F (stereo unspecified)
The melting point of the first is higher: 88 to 94 °C for the first, 76 to 78 °C for the second.

First: CC(=O)c1ccc(CCNS(=O)(=O)c2ccc(Br)cc2)cc1
Second: Cc1ccc(NC(=O)c2ccc([N+](=O)[O-])cc2)cc1
The melting point of the first is lower: 130 to 131 °C for the first, 140 to 146 °C for the second.

First: N#Cc1c(C(=O)O)nn(-c2ccc(Cl)cc2Cl)c1-c1ccc(Cl)cc1
Second: CC(=O)Nc1c(-c2ccc(Cl)cc2)c2ccccc2n1C
The melting point of the first is lower: 132 to 137 °C for the first, 196 to 197 °C for the second.

Compared with CC(=O)NCC(=O)c1ccccc1, O=C(NCC(O)c1ccccc1)c1ccccc1 (stereo unspecified) is higher in melting point: 69 °C for the first, 140 to 143 °C for the second.

Compared with C#CC[C@H](c1nc2cccnc2c(=O)n1Nc1ccccc1)N(CCCN)C(=O)c1cc(F)c(F)c(F)c1F, COC(=O)c1ccc(OCCNC(=O)C2Cc3ccccc3N2S(=O)(=O)c2ccc(-c3ccc(F)cc3F)cc2)cc1F (stereo unspecified) is lower in melting point: 180 to 182 °C for the first, 65 to 68 °C for the second.

First: CCCCc1c(C(=O)N(C)Cc2ccc3c(Br)c(OCc4nnn[nH]4)ccc3c2)oc2ccccc12
Second: CCOC(=O)c1cc(OCc2ccccc2)c2ccc(C#N)cc2c1
The melting point of the first is higher: 180 to 183 °C for the first, 125 °C for the second.

Compared with CCCc1nn(C)c2c(=O)n(CCCOc3ccc(SC(C)(C)C(=O)O)cc3)c(C)nc12, CCOC(=O)C(CC)Sc1nc2c(c(=O)n(CCOC)c(=O)n2C)n1Cc1cccc(Br)c1 (stereo unspecified) is lower in melting point: 140 to 142 °C for the first, 58 °C for the second.

First: Cc1nc(NCCc2ccccc2)c2c(n1)N(c1ccccc1)C(=O)C2
Second: O=C1CCCc2nc3ccccc3c(NCCc3ccccc3)c21
The melting point of the first is lower: 81 to 84 °C for the first, 129 to 132 °C for the second.

Compared with CCn1cc(-c2c(-c3ccccc3)nn3ccncc23)ccc1=O, Cc1c(CC2CCc3cc4ccccc4n3C2=O)ncn1Cc1ccccc1 (stereo unspecified) is lower in melting point: 192 to 193 °C for the first, 130 to 140 °C for the second.

Cc1cc(-c2nncc3c(C(C)(C)C)c(OCc4ccncc4)nn23)no1 and CC(C)(C)OC(=O)N1C(=O)C(Br)=C(c2cn(C(=O)OC(C)(C)C)c3cc(OCc4ccccc4)ccc23)C1=O cannot be ordered by melting point: 119 to 121 °C for the first, 120 °C for the second.

Compared with CCSc1nc(O)nn1CC, CON(C)c1nc(C)cc(O)n1 is higher in melting point: 65 to 68 °C for the first, 128 to 129 °C for the second.

First: O=CN1CCSc2ccccc2C1
Second: CN1CC2c3cccn3Cc3ccccc3N2C(=O)C1=O (stereo unspecified)
The melting point of the first is lower: 84 to 87 °C for the first, 178 to 179 °C for the second.

First: ON=Cc1ccc2c(c1)ncn2-c1cccc(CNCc2ccc(F)c(F)c2)c1
Second: OCCOc1cn(-c2ccc(F)cc2)c2ccc(Cl)cc12
The melting point of the first is higher: 165 to 167 °C for the first, 118 to 120 °C for the second.

Going from CNC(=S)C1(c2cccnn2)CCCS1 (stereo unspecified) to CC1(C)COc2cc(Cl)c(F)cc2C(O)(c2ccccn2)C1 (stereo unspecified), the melting point falls from 199 °C to 100 °C.

First: CN1C(=O)c2cscc2N(C)c2ccccc21
Second: Cc1nnc2n1-c1sccc1C(c1ccccc1)=NC2
The melting point of the first is lower: 101 to 102 °C for the first, 224 to 226 °C for the second.

First: COc1cc([N+](=O)[O-])ccc1-c1sc(C)nc1C
Second: Cc1ccn2c(C(=O)O)c(C)nc2c1
The melting point of the first is lower: 123 to 125 °C for the first, 180 to 183 °C for the second.

Compared with O[C@@H]1CCN(c2ccc3nnn(Cc4ccc5ncccc5c4)c3n2)C1, COc1ccc(-n2c3c(c(=O)c4cccnc42)CC(C)O3)cc1 (stereo unspecified) is higher in melting point: 167 to 169 °C for the first, 194 to 196 °C for the second.

First: COc1cc2nc(C(=O)O)c(=O)n(C)c2cc1OC
Second: COc1ccc(Cl)cc1Nc1c(C#N)cnc2cc(OC)c(OC)cc12
The melting point of the first is higher: 261 °C for the first, 200 to 202 °C for the second.

N#CCc1cc(F)c(OCc2ccccc2)c(OCc2ccccc2)c1 and N#CCc1ccc(-c2onc3ccccc23)cc1 cannot be ordered by melting point: 120 to 121 °C for the first, 118 to 121 °C for the second.

Compared with CCCCCCCCCCOc1ccc(OCCCC#CCOC)cc1, COC(=O)CCCCCCCCCNS(=O)(=O)c1ccc(Cl)cc1 is higher in melting point: 33 to 34 °C for the first, 68 to 70 °C for the second.

First: COc1ccc(-c2nc(Sc3ccccc3F)[nH]c2-c2ccc(OC)cc2)cc1
Second: COc1ccc(C(=O)c2ccc(OCc3nc(-c4ccccc4)oc3C)cc2)c(OC2(C(=O)O)CCC2)c1
The melting point of the first is lower: 195 °C for the first, 199 to 201 °C for the second.

First: CCc1noc(C)c1-c1[nH]c2ccccc2c1C(=O)CCN(C)C
Second: Cc1c2c(c(C)c(NC(=O)CC(C)(C)C)c1-c1ccccc1)C(c1ccc(C(C)C)cc1)CO2 (stereo unspecified)
The melting point of the first is lower: 146 to 148 °C for the first, 212 to 213 °C for the second.

First: N#Cc1ccc(OCc2cccnc2)cc1OC(CCC(=O)O)c1cccc2c1OCO2 (racemic)
Second: CCOC(=O)CC(Cc1ccccc1)NC(=O)c1ccc(OC)cc1 (stereo unspecified)
The melting point of the first is higher: 181 to 183 °C for the first, 102 to 104 °C for the second.

Compared with CCOC(=O)NC(=S)SCc1ccc(Cl)cc1, CCCCCCC(C(=O)OCC)S(=O)(=O)c1ccc(C)cc1 (stereo unspecified) is higher in melting point: 80 °C for the first, 111 to 123 °C for the second.

First: CN(C)c1ccc(C=CC(=O)C=Cc2ccc(N(C)C)cc2)cc1
Second: CN(C)c1ccc(CCBr)cc1
The melting point of the first is higher: 174 to 176 °C for the first, 45 to 46 °C for the second.

Compared with CC(Cn1ncnn1)n1nnc2cc3c(cc2c1=O)OC1COCCN1C3=O (stereo unspecified), C[C@H](Cn1ncnn1)n1cnc2cc3c(=O)n([C@H](C)Cn4ncnn4)cnc3cc2c1=O is higher in melting point: 188 to 190 °C for the first, 255 to 256 °C for the second.

First: O=C(Cc1ccc(Cl)c(Cl)c1)N1CCC2(CC1CN1CCCC1)SCCS2 (stereo unspecified)
Second: COC(=O)c1ccc2[nH]cc(CCCCN3CCN(c4ccc5c(c4)OCCO5)CC3)c2c1
The melting point of the first is lower: 119 to 120 °C for the first, 177 to 179 °C for the second.

First: COc1ccc(C2(C)Cc3cc(OCC(=O)O)c(Cl)c(Cl)c3C2=O)cc1 (stereo unspecified)
Second: COc1ccc(CN2Cc3cc(N(C)C)ccc3N=C2N)cc1
The melting point of the first is lower: 173 to 175 °C for the first, 175 to 180 °C for the second.

Compared with NCC(=O)NCC(=O)Nc1ccc(Cl)cc1C(=O)c1ccccc1, CNC(=O)c1cccc(NC(=O)Cc2ccc(F)cc2)c1 is higher in melting point: 136 to 138 °C for the first, 155 to 156 °C for the second.

Compared with CCn1c(=O)n(OCc2ccccc2)c(=O)c2cc(F)c(N3CCC(NC(=O)OC(C)(C)C)C3)nc21 (stereo unspecified), CCOC(=O)c1cn(C2CC2)c2nc(N3CC(C)C(N)C3)c(F)cc2c1=O (stereo unspecified) is lower in melting point: 157 to 159 °C for the first, 148 to 150 °C for the second.

First: CC(=O)NC[C@H]1CN(c2ccc(N3CCN(C(=O)OC(C)(C)C)CC3)c(F)c2)C(=O)O1
Second: CCOc1nc2ccccc2nc1NC(=O)N1CCN(c2cc(F)cc(F)c2)CC1
The melting point of the first is higher: 153 to 159 °C for the first, 146 to 148 °C for the second.

First: Cc1ccc(-n2nc(C(F)(F)F)cc2-c2ccc(S(C)(=O)=O)cc2)cc1Cl
Second: CC(C)(C)c1cccc(S(=O)(=O)n2c(CBr)cc3cc(C(F)(F)F)ccc32)c1
The melting point of the first is higher: 136 to 138 °C for the first, 80 °C for the second.

First: Cc1ccc2c(c1)C=Cc1ncccc1C2c1c[nH]c(=O)[nH]c1=S (stereo unspecified)
Second: O=c1[nH]ccc2c1C(c1cccc([N+](=O)[O-])c1)N=C(c1ccccc1)N2 (stereo unspecified)
The melting point of the first is higher: > 250 °C for the first, 206 to 207 °C for the second.

First: CCC(COC)NC(=O)C(Cc1ccc(OCc2ccccc2)cc1)NC(=O)C(CC(C)C)N(C)Cc1ccc(N(C)C)cc1 (stereo unspecified)
Second: COC(=O)CCc1ccc(CNC(=O)[C@@H](CCCNC(N)=N[N+](=O)[O-])NC(=O)C(c2ccccc2)c2ccccc2)cc1
The melting point of the first is lower: 109 to 112 °C for the first, 159 to 161 °C for the second.

Compared with N#Cc1nn(-c2c(Cl)cc(C(F)(F)F)cc2Cl)c(N)c1C(=O)CBr, O=c1[nH]c(C(F)(F)F)nc2ccc(S(=O)(=O)O)cc12 is higher in melting point: 190 to 192 °C for the first, > 330 °C for the second.

Going from O=c1oc(C(Cl)Cl)nc2c(C(F)(F)F)cccc12 to CCOC(=O)C(C(=O)OCC)c1c(Cl)cnc2c([N+](=O)[O-])cccc12, the melting point falls from 179 °C to 102 °C.

First: CCN(CCC12CC3CC(CC(C3)C1)C2)C(=O)NCCCc1ccncc1
Second: Oc1cc2ccc(Br)cc2cc1C12CC3CC(CC(C3)C1)C2
The melting point of the first is lower: 106 to 115 °C for the first, 215 to 216 °C for the second.

Compared with CC(C)(C)OC(=O)NCCS(C)(=O)=O, CC(C)(C)[Si](C)(C)OCCCC(=O)c1cc(-c2ccc(S(N)(=O)=O)cc2)n(C2CCCCC2)n1 is higher in melting point: 85 to 86 °C for the first, 151 to 153 °C for the second.

First: CCOC(=O)C1[C@@H]2[C@@H](O)[C@@H]3O[C@H](c4ccccc4)OC[C@H]3O[C@H]12 (stereo partly specified)
Second: CCOC(=O)c1cc2cc3c(cc2oc1=O)OCO3
The melting point of the first is lower: 137 to 139 °C for the first, 200 to 201 °C for the second.

First: CCOC(=O)C(C(=O)CC(C)C)C1c2ccccc2C(=O)N1c1ccc2ccc(Cl)nc2n1 (stereo unspecified)
Second: O=C1c2ccccc2C(c2c(O)c3ccccc3oc2=O)N1c1ccccc1 (stereo unspecified)
The melting point of the first is lower: 145 °C for the first, 335 to 337 °C for the second.

Compared with C=CCOc1ccc(C(=O)OC2CCC(CCCCCCC(=O)C(=C)C)CC2)cc1 (stereo unspecified), COc1ccc(-c2nc(C(=O)NCCO)c[nH]2)cc1OC1CCCC1 is higher in melting point: 50 °C for the first, 206 to 208 °C for the second.

Compared with CC(=Cc1cccc(F)c1)C(=O)O, NOC(=O)C(=C(C(=O)C(F)(F)F)c1ccccc1)c1ccccc1 is higher in melting point: 95 to 97 °C for the first, 175 °C for the second.

First: Clc1cc(Cl)nc(NC2CCCC2)n1
Second: COc1ccc(C2(C#Cc3ccc(Cl)cc3)CCC(=O)CC2)cc1OC1CCCC1
The melting point of the first is lower: 48 to 52 °C for the first, 104 to 105 °C for the second.

First: O=C1C=C(c2ccc(C(=O)N3Cc4cccn4Cc4ccccc43)cc2)CCC1
Second: CS(=O)(=O)C(=C1CN(C(c2ccccc2)c2ccccc2)C1)c1ccccc1O
The melting point of the first is higher: 205 to 207 °C for the first, 196 °C for the second.

First: O=c1[nH]c2ccc(Cn3ccnc3)cc2[nH]c1=O
Second: Cc1c(-c2ccccc2)[nH]c(=O)n1C1CCN(Cc2cccc(I)c2)CC1
The melting point of the first is higher: > 300 °C for the first, 269 to 271 °C for the second.

Compared with O=c1c2ccc(Cl)cc2sn1CCCCl, Cc1cc2c(=O)[nH]c(CCl)nc2cc1Cl is higher in melting point: 89 °C for the first, 287 to 290 °C for the second.

First: O=[N+]([O-])c1cc(O)cc2cc(-c3ccc(O)cc3)oc12
Second: COc1ccc(-c2[nH]nc3c2C(=O)c2c(NC(=O)NNC(=O)c4cc(N)cc(N)c4)cccc2-3)cc1
The melting point of the first is lower: 236 to 237 °C for the first, > 300 °C for the second.

First: C#CCOc1cc(N)c(F)cc1Cl
Second: CCNC(=O)c1c(Cl)cc(C=O)cc1[Si](C)(C)C
The melting point of the first is lower: 61 to 61.5 °C for the first, 95 to 97 °C for the second.

Compared with CCCCc1nccn1-c1nc(Cl)nc2nc[nH]c12, Cn1ccnc1C(=O)c1cc(C(C)(C)C)c(O)c(C(C)(C)C)c1 is lower in melting point: 247 to 248 °C for the first, 172 to 174 °C for the second.

First: CCCOC(N)=C(C#N)C(N)=S
Second: CC(C)c1cc(S(N)(=O)=O)c(C(C)C)cc1Br
The melting point of the first is higher: 174 °C for the first, 145 to 152 °C for the second.

In the case of Nc1ncnc2sc(Cc3ccccc3)c(-c3ccc(NS(=O)(=O)c4ccccc4)cc3)c12, the melting point is reported as 100 to 105 °C.

Source: a melting point compilation (Tetko et al.; mined from patent text by program, amines drawn as free bases though some values may be those of a salt)
